Settings: Liquid, Pendant drop shape

CCCCCCCCCCCCCCCCC [heptadecane] + O=C=O
Settings | interfacial tension [mN/m]
313.15 K, 390 kPa | 25.11
313.15 K, 1300 kPa | 22.73
313.15 K, 2350 kPa | 20.26
313.15 K, 3500 kPa | 17.14
313.15 K, 5000 kPa | 13.27
313.15 K, 6500 kPa | 9.3
313.15 K, 8000 kPa | 5.34
313.15 K, 9000 kPa | 2.7
333.15 K, 750 kPa | 22.56
333.15 K, 1860 kPa | 20.55
333.15 K, 2830 kPa | 18.33
333.15 K, 3810 kPa | 16.6
333.15 K, 4850 kPa | 14.57
333.15 K, 5930 kPa | 12.56
333.15 K, 7090 kPa | 10.2
333.15 K, 8280 kPa | 8.07
333.15 K, 9630 kPa | 5.7
333.15 K, 10600 kPa | 4.26
353.15 K, 940 kPa | 19.98
353.15 K, 1910 kPa | 18.81
353.15 K, 3030 kPa | 17.6
353.15 K, 4000 kPa | 16.02
353.15 K, 5220 kPa | 14.29
353.15 K, 6110 kPa | 12.99
353.15 K, 7210 kPa | 11.23
353.15 K, 8580 kPa | 9.36
353.15 K, 9500 kPa | 8.34
353.15 K, 10740 kPa | 6.77
353.15 K, 12020 kPa | 5.27
353.15 K, 13180 kPa | 4.15
373.15 K, 920 kPa | 19.2
373.15 K, 2390 kPa | 17.81
373.15 K, 4000 kPa | 15.65
373.15 K, 5490 kPa | 13.83
373.15 K, 7260 kPa | 11.8
373.15 K, 9000 kPa | 9.93
373.15 K, 10800 kPa | 8.1
373.15 K, 12560 kPa | 6.21
373.15 K, 13470 kPa | 5.47
373.15 K, 14640 kPa | 4.43
393.15 K, 1190 kPa | 18.38
393.15 K, 4320 kPa | 14.69
393.15 K, 6780 kPa | 12.43
393.15 K, 10600 kPa | 8.46
393.15 K, 13920 kPa | 5.87

CCCCCCCCCCC [undecane] + O=C=O
Settings | interfacial tension [mN/m]
313.15 K, 340 kPa | 22.19
313.15 K, 1410 kPa | 19.54
313.15 K, 2530 kPa | 16.91
313.15 K, 3590 kPa | 14.36
313.15 K, 4700 kPa | 11.15
313.15 K, 5630 kPa | 8.47
313.15 K, 6540 kPa | 5.82
313.15 K, 7100 kPa | 3.75
333.15 K, 350 kPa | 20.59
333.15 K, 1700 kPa | 17.96
333.15 K, 3240 kPa | 14.87
333.15 K, 4730 kPa | 12.15
333.15 K, 5810 kPa | 9.86
333.15 K, 7190 kPa | 7.45
333.15 K, 8000 kPa | 5.82
333.15 K, 8910 kPa | 4.12
353.15 K, 440 kPa | 18.64
353.15 K, 1800 kPa | 16.41
353.15 K, 3430 kPa | 14.14
353.15 K, 4930 kPa | 11.74
353.15 K, 6480 kPa | 9.53
353.15 K, 7890 kPa | 7.53
353.15 K, 8940 kPa | 5.99
353.15 K, 10190 kPa | 4.39
373.15 K, 410 kPa | 17.05
373.15 K, 1880 kPa | 15.22
373.15 K, 3100 kPa | 13.86
373.15 K, 4410 kPa | 12.26
373.15 K, 5910 kPa | 10.19
373.15 K, 7020 kPa | 8.84
373.15 K, 8600 kPa | 7.05
373.15 K, 9900 kPa | 5.73
373.15 K, 11680 kPa | 3.99
393.15 K, 530 kPa | 15.69
393.15 K, 3300 kPa | 12.38
393.15 K, 5820 kPa | 9.76
393.15 K, 9300 kPa | 6.53
393.15 K, 12810 kPa | 3.55

CCCCCCCCC [nonane] + O=C=O
Settings | interfacial tension [mN/m]
313.15 K, 500 kPa | 20.26
313.15 K, 1490 kPa | 17.76
313.15 K, 2460 kPa | 15.19
313.15 K, 3500 kPa | 12.77
313.15 K, 4500 kPa | 10.11
313.15 K, 5490 kPa | 7.35
313.15 K, 6620 kPa | 4.28
313.15 K, 7290 kPa | 2.5
333.15 K, 390 kPa | 18.9
333.15 K, 1440 kPa | 16.61
333.15 K, 2400 kPa | 14.76
333.15 K, 3320 kPa | 12.98
333.15 K, 4460 kPa | 11.05
333.15 K, 5400 kPa | 9.01
333.15 K, 6220 kPa | 7.55
333.15 K, 7290 kPa | 5.61
333.15 K, 8230 kPa | 3.83
353.15 K, 1080 kPa | 16.12
353.15 K, 2100 kPa | 14.28
353.15 K, 3090 kPa | 12.81
353.15 K, 4130 kPa | 11
353.15 K, 5130 kPa | 9.64
353.15 K, 6030 kPa | 8.29
353.15 K, 6990 kPa | 6.95
353.15 K, 8000 kPa | 5.67
353.15 K, 9400 kPa | 3.85
373.15 K, 1060 kPa | 14.6
373.15 K, 2110 kPa | 13.15
373.15 K, 3060 kPa | 11.85
373.15 K, 4190 kPa | 10.43
373.15 K, 5200 kPa | 9.22
373.15 K, 6210 kPa | 7.93
373.15 K, 7000 kPa | 7.04
373.15 K, 7990 kPa | 6.08
373.15 K, 9340 kPa | 4.61
373.15 K, 10460 kPa | 3.58
393.15 K, 940 kPa | 13.32
393.15 K, 3080 kPa | 10.78
393.15 K, 5700 kPa | 8.17
393.15 K, 9300 kPa | 4.7
393.15 K, 11410 kPa | 2.98

From the NIST ThermoML archive (doi:10.1016/j.fluid.2017.02.012)
